Source: US11384381B2, “Reaction accelerating agent” (Kikkoman Corporation, priority 2016, dated 2022)

How the values were obtained:
Assay type in all cases: biochemical
[1] = tested on: fructosyl peptide oxidase (FPOX-CET); experiment: Acceleration of fructosyl valyl histidine detection reaction with small amount of fructosyl peptide oxidase (Example 7); conditions: 0.04% (w/v) compound, 0.48 U/ml FPOX-CET; for effect of accelerating the fructosyl valyl histidine detection reaction: versus not added; for Degree of progression of reaction (%) after 7.5 minutes / Degree of progression of reaction (%) after 10 minutes: fructosyl valyl histidine detection reaction, ΔA/ΔA100%; for Degree of progression of reaction (%) after 7.5 minutes: 2.5 minutes after addition of second reagent, not added: 57; for Degree of progression of reaction (%) after 10 minutes: 5 minutes after addition of second reagent, not added: 81
Procedure: Next, in this Example, the degree of acceleration of fructosyl valyl histidine detection reaction by the compound of the present invention was determined using a small amount of fructosyl peptide oxidase.
A reagent for fructosyl valyl histidine measurement having the following composition was prepared, and the measurement of fructosyl valyl histidine was carried out using Bio Majesty JCA-BM 1650 (manufactured by JEOL Ltd.).
32 μM fructosyl valyl histidine (manufactured by Kikkoman Biochemifa Company)
30 mM MOPS-NaOH buffer solution, pH 7.0
0.2% (v/v) Triton X-100 (manufactured by Wako Pure Chemical Industries, Ltd.)
(§1) 10 U/ml peroxidase PEO-301 (Toyobo Co., Ltd.)
(§2) 0.023 mM 10-(carboxymethylaminocarbonyl)-3,7-bis(dimethylamino)phenothiazine sodium (DA-67, manufactured by Wako Pure Chemical Industries, Ltd.)
(§3) 0.04% (w/v) of the compound of Comparative Example 2, any one compound of the present invention, or compound-free (Comparative Example 1) ion-exchange water as shown in Table 1
10 mM MOPS-NaOH buffer solution, pH 7.0
0.48 U/ml FPOX-CET (manufactured by Kikkoman Biochemifa Company)
8 μl of the sample was added to 96 μl of the first reagent-B, and the mixture was incubated at 37° C. for 5 minutes. Then, 24 μl of the second reagent-D was added thereto, and the quantitative reaction of hydrogen peroxide resulting from the oxidation of fructosyl valyl histidine was allowed to progress at 37° C. for 5 minutes. The absorbance (A694 and A751) of the reaction solution for light at wavelengths of 694 nm and 751 nm was measured over time for 10 minutes after the mixing of the sample with the first reagent-B to determine the value of subtraction of A751 from A694. i.e., the value A694/751. Subsequently, ΔA was calculated by subtracting, from A694/751, the value of (104/128) times A694/751 4.8 minutes after the mixing of the sample with the first reagent-B. Incidentally, 5 minutes after the mixing of the sample with the first reagent-B represents the time immediately before the addition of the second reagent-D.
(§4) Next, ΔA calculated in this Example was divided by ΔA1000% defined in Example 6 to calculate the degree of progression of fructosyl valyl histidine detection reaction. The degree of progression of fructosyl valyl histidine detection reaction 7.5 and 10 minutes after the mixing of the sample with the first reagent-B (in other words, 2.5 and 5 minutes after the addition of the second reagent-D) is shown in Table 4.

[2] = tested on: fructosyl amino acid oxidase (FAOD-E); experiment: Fructosyl valine detection reaction completed with excess fructosyl amino acid oxidase (Example 8); conditions: 0.04% (w/v) compound, 21.4 U/ml FAOD-E (excess), 32 μM fructosyl valine, pH 8.0, 37° C.; for ΔA9 min: change in A694-A751 9 minutes after mixing; for ΔA10 min: change in A694-A751 10 minutes after mixing, defined as ΔA100%
Procedure: In this Example, the amount of change in absorbance is determined when the detection reaction of the substrate fructosyl valine was completed using an excess amount of fructosyl amino acid oxidase (FAOD-E), which is an oxidase.
A reagent for fructosyl valine measurement having the following composition was prepared, and the measurement of fructosyl valine using fructosyl amino acid oxidase was carried out using Bio Majesty JCA-BM 1650 (manufactured by JEOL Ltd.).
(§5) 32 μM fructosyl valine (manufactured by Kikkoman Biochemifa Company)
(§6) 30 mM MOPS-NaOH buffer solution, pH 8.0
(§7) 0.2% (v/v) NYMEEN F-215 (manufactured by NOF Corp.)
as §1
0.023 mM 10-(carboxymethylaminocarbonyl)-3,7-bis(dimethylamino)phenothiazine sodium
(DA-67, manufactured by Wako Pure Chemical Industries, Ltd.)
as §3
(§8) 10 mM MOPS-NaOH buffer solution, pH 8.0
21.4 U/ml FAOD-E (manufactured by Kikkoman Biochemifa Company)
(§9) 8 μl of the sample was added to 96 μl of the first reagent-C, and the mixture was incubated at 37° C. for 5 minutes. Then, 24 μl of the second reagent-E was added thereto, and the quantitative reaction of hydrogen peroxide resulting from the oxidation of fructosyl valine was allowed to progress at 37° C. for 5 minutes. The absorbance (A6% and A751) of the reaction solution for light at wavelengths of 694 nm and 751 nm was measured over time for 10 minutes after the mixing of the sample with the first reagent-C to determine the value of subtraction of A751 from A694, i.e., the value A694/751. Subsequently, ΔA was calculated by subtracting, from A694/751, the value of (104/128) times A694/751 4.8 minutes after the mixing of the sample with the first reagent-C. Incidentally, 4.8 minutes after the mixing of the sample with the first reagent-C represents the time immediately before the addition of the second reagent-E. ΔA 9 minutes and 10 minutes after the mixing of the diluted sample with the first reagent-C (ΔA9min and ΔA10min) are shown in Table 5.
In other words, it can be recognized that the quantitative reaction of fructosyl valine, i.e., the quantitative reaction of hydrogen peroxide resulting from the oxidation of fructosyl valine, was completed in 10 minutes after the mixing of the diluted sample with the first reagent-C. Accordingly, in Examples 8 and 9, ΔA10min in each Comparative Example or the present invention was defined as ΔA when 100% of the quantitative reaction of HbA1c progressed under each condition (ΔA100%).

[3] = tested on: fructosyl amino acid oxidase (FAOD-E); experiment: Acceleration of fructosyl valine detection reaction with small amount of fructosyl amino acid oxidase (Example 9); conditions: 0.04% (w/v) compound, 2.14 U/ml FAOD-E; for effect of accelerating fructosyl valine detection reaction: versus not added; for Degree of progression of reaction (%) after 7.5 minutes / Degree of progression of reaction (%) after 10 minutes: fructosyl valine detection reaction, ΔA/ΔA100%; for Degree of progression of reaction (%) after 7.5 minutes: 2.5 minutes after addition of second reagent, not added: 29; for Degree of progression of reaction (%) after 10 minutes: 5 minutes after addition of second reagent, not added: 48
Procedure: Next, in this Example, the degree of acceleration of fructosyl valine detection reaction by the compound of the present invention was determined using a small amount of fructosyl amino acid oxidase.
A reagent for fructosyl valine measurement having the following composition was prepared, and the measurement of fructosyl valine was carried out using Bio Majesty JCA-BM1650 (manufactured by JEOL Ltd.).
as §5, §6, §7, §1, §2, §3, §8
2.14 U/ml FAOD-E (manufactured by Kikkoman Biochemifa Company)
as §9, with “second reagent-F” for “second reagent-E”, “absorbance (A694” for “absorbance (A6%”, “Incidentally, 5” for “Incidentally, 4.8”, “second reagent-F.” for “second reagent-E. ΔA 9 minutes and 10 minutes after the mixing of the diluted sample with the first reagent-C (ΔA9min and ΔA10min) are shown in Table 5.”
as §4, with “ΔA100%” for “ΔA1000%”, “8” for “6”, “valine” for “valyl histidine”, “reagent-C” for “reagent-B”, “reagent-F)” for “reagent-D)”, “6.” for “4.”

Cc1nn(-c2cc(S(=O)(=O)[O-])ccc2Cl)c(O)c1N=Nc1ccccc1.[Na+] [Acid Yellow 34]
effect of accelerating the fructosyl valyl histidine detection reaction [1]: effect of accelerating the fructosyl valyl histidine detection reaction | Degree of progression of reaction (%) after 7.5 minutes [1]: 62% | Degree of progression of reaction (%) after 10 minutes [1]: 86%

COc1cc(N=Nc2ccc(N)cc2)c(C)cc1N [Disperse Diazo Black 3BF]
ΔA9 min [2]: 0.062 | ΔA10 min [2]: 0.061 | effect of accelerating fructosyl valine detection reaction [3]: effect of accelerating fructosyl valine detection reaction | Degree of progression of reaction (%) after 7.5 minutes [3]: 86% | Degree of progression of reaction (%) after 10 minutes [3]: 89%

O=C(O)c1cc(N=Nc2ccc3cc(S(=O)(=O)O)ccc3c2)ccc1O.[Na] [Chrome Yellow]
ΔA9 min [2]: 0.066 | ΔA10 min [2]: 0.067 | effect of accelerating fructosyl valine detection reaction [3]: effect of accelerating fructosyl valine detection reaction | Degree of progression of reaction (%) after 7.5 minutes [3]: 43% | Degree of progression of reaction (%) after 10 minutes [3]: 68% | effect of accelerating the fructosyl valyl histidine detection reaction [1]: effect of accelerating the fructosyl valyl histidine detection reaction | Degree of progression of reaction (%) after 7.5 minutes [1]: 62% | Degree of progression of reaction (%) after 10 minutes [1]: 86%

COc1cc(N=Nc2cccc(S(=O)(=O)[O-])c2)ccc1NC(=O)Nc1ccc(N=Nc2ccc(O)c(C(=O)[O-])c2)cc1.[Na+].[Na+] [Direct Yellow 44]
effect of accelerating the fructosyl valyl histidine detection reaction [1]: effect of accelerating the fructosyl valyl histidine detection reaction | Degree of progression of reaction (%) after 7.5 minutes [1]: 66% | Degree of progression of reaction (%) after 10 minutes [1]: 88%

Xylene Fast Yellow 2G
effect of accelerating the fructosyl valyl histidine detection reaction [1]: effect of accelerating the fructosyl valyl histidine detection reaction | Degree of progression of reaction (%) after 7.5 minutes [1]: 63% | Degree of progression of reaction (%) after 10 minutes [1]: 96%

O=C([O-])c1cc(N=Nc2ccc([N+](=O)[O-])cc2)ccc1O.[Na+] [Mordant Orange 1]
ΔA9 min [2]: 0.049 | ΔA10 min [2]: 0.051 | effect of accelerating fructosyl valine detection reaction [3]: effect of accelerating fructosyl valine detection reaction | Degree of progression of reaction (%) after 7.5 minutes [3]: 37% | Degree of progression of reaction (%) after 10 minutes [3]: 59%

O=C([O-])c1cc(N=Nc2cccc([N+](=O)[O-])c2)ccc1O.[Na+] [Alizarin Yellow GG]
ΔA9 min [2]: 0.044 | ΔA10 min [2]: 0.046 | effect of accelerating fructosyl valine detection reaction [3]: effect of accelerating fructosyl valine detection reaction | Degree of progression of reaction (%) after 7.5 minutes [3]: 38% | Degree of progression of reaction (%) after 10 minutes [3]: 62%
